Test results published in patent publication US5852011A, “Benzimidazole derivatives” (Mitsui Chemicals, Inc., priority 1994, dated 1998).
In brackets after ≈: the same amount, converted by molar mass. Structures can show the parent of a compound that is named as a salt.

Assays:
[1] = tested on: A(adenine)-T(thymine) DNA copolymer; assay: Change in Tm (melting temperature) of DNA copolymer on addition of compound (Test 1); format: binding; conditions: for ΔTm: difference between Tm with and without compound, citrated buffer
Method: To investigate bonding of these compounds with DNA, changes in Tm (melting temperature) were measured. With respect of each of these compounds, the measurement was conducted by determining the difference between Tm measured when a citrated buffer solution of an A(adenine)-T(thymine) DNA copolymer was added with the compound and that measured when the compound was not added. For the measurement, a spectrophotometer ("HITACHI U-3200 MODEL") was used and for temperature control, "HITACHI SPR-10 MODEL" was used.

[2] = tested on: Colon 26 mouse colon cancer cells; assay: In vivo antitumor activity, Colon 26 subcutaneously transplanted to female CDF1 mice (Test 4); conditions: caudal vein, tumor weight on day 15
Method: Prepared was a 1×10^7 cells/ml suspension of Colon 26 mouse colon cancer cells in HBSS (Hanks' Balanced Salt Solution). A 0.1 ml portion of the cell suspension was subcutaneously transplanted to a lateroabdominal part of each female CDF1 mouse. After the body weight of the mouse was measured on the following day of the transplantation of the tumor, a solution of a compound (5% glucose solution containing 5% of "Tween 80") was administered into the caudal vein of the mouse. On day 15, a tumor was excised and its weight was measured.
The percentage of the average tumor weight of each experiment group as calculated by supposing that the average tumor weight of the control group not administered with any drug was 100% was calculated as a T/C value.
Corresponding to each compound number, its T/C value is shown. The number in parentheses indicates the concentration of the drug when the T/C value was indicated.

[3] = tested on: P388 leukemia cells; assay: In vivo antitumor activity, P388 leukemia intraperitoneally transplanted to female CDF1 mice (Test 3); parameters: species or system mouse; ILS: unit not given here; conditions: intraperitoneal, one, five and nine days after transplantation
Method: In vivo antitumor activities of these compounds were also studied. P388 leukemia cells (10^6 cells/mouse) were intraperitoneally transplanted to female CDF1 mice. One, five and nine days later, each compound was intraperitoneally administered (at 1, 3 or 10 mg/kg) to the mice. As a blank test, 5% glucose was intraperitoneally administered at 10 ml/kg to mice. Based on the group of the mice in the blank test as a control group, the effects of the individual drugs are shown in terms of ILS. The term "ILS" is represented by the following formula: [formula]
When test animals survived 8 weeks after the administration, the number of those survived was recorded without calculation of ILS.

[4] = tested on: mouse B16 melanoma cells; assay: In vitro inhibition of proliferation of tumored cells, mouse B16 melanoma (Test 2); format: cell-based; conditions: 3 days in 5% CO2 at 37° C., 96-well plate; for IC50: Mus musculus, B16, 72 h, read-out: 50% Inhibition
Method: A description will next be made of antitumor activities of these compounds. Their antitumor activities were determined by measuring their in vitro inhibition of proliferation of tumored cells. Namely, mouse B16 melanoma cells were spread over a 96-well culture plate. One day later, each drug was applied. The melanoma cells were then incubated for 3 days in 5% CO2 at 37° C. Following the method reported in Cancer Res., 48, 589-601(1988), the concentration of the drug required to induce 50% inhibition on the proliferation was determined. As a comparative example, the results obtained from the application of distamycin are also shown.

Question: Which “binding to DNA indicated by Tm (in words)” value ([1]; melting temperature of double-stranded DNA) does the source give for `Cn1cc(C=O)cc1-c1nc2cc(C(=O)NCCC(=N)N)ccc2[nH]1` here?
Answer: increased Tm value

Question: How did the T/C ([2]; 20 mg/Kg) turn out when `COc1cccc2c1C(=O)c1c(O)c3c(c(O)c1C2=O)C[C@@](O)(C(=O)CO)C[C@@H]3O[C@H]1C[C@H](N)[C@H](O)[C@H](C)O1` [Adriamycin, adriamycin, reference compound] was run?
Answer: 40%

Question: With `Cn1cc(NC(=O)c2ccc(N(CCCl)CCCl)cc2)cc1-c1nc2cc(C(=O)NCCC(=N)N)ccc2[nH]1` [Compound 1, 1H-2-[4-[4-[N,N-bis(2-chloroethyl)amino]benzoylamino]-1-methylpyrrol-2-yl]benzimidazole-5-[N-(2-amidinoethyl)]carboxamide hydrochloride] as the compound, how does the ILS ([3]; 1 mg/kg) read?
Answer: 38

Question: And the T/C ([2]; 2 mg/Kg)?
Answer: 29%

Question: And the “50% Inhibition” value [4]?
Answer: 0.23 µg/mL

Question: Which results are given for `Cn1cc(NC(=O)CCCc2ccc(N(CCCl)CCCl)cc2)cc1-c1nc2cc(C(=O)NCCC(=N)N)ccc2[nH]1` [Compound 4, 1H-2-[4-[4-[4-[N,N-bis(2-chloroethyl)amino]phenyl]butylylamino]-1-methylpyrrol-2-yl]benzimidazole-5-[N-(2-amidinoethyl)]carboxamide hydrochloride]?
Answer: ΔTm [1]: 17 °C; 50% Inhibition [4]: 0.04 µg/mL

Question: For `COc1cc(C(=O)Nc2cc(-c3nc4cc(C(=O)NCCC(=N)N)ccc4[nH]3)n(C)c2)ccc1N(CCCl)CCCl` [Compound 6, 1H-2-[4-[3-Methoxy-4-[N,N-bis(2-chloroethyl)amino]benzoylamino]-1-methylpyrrol-2-yl]benzimidazole-5-[N-(2-amidinoethyl)]carboxamide hydrochloride], which ILS ([3]; 1 mg/kg) is on record?
Answer: 94

Question: What about the “50% Inhibition” value [4] of the same compound?
Answer: 0.02 µg/mL

Question: With `Cn1cc(NC(=O)COc2ccc(N(CCCl)CCCl)cc2)cc1-c1nc2cc(C(=O)NCCC(=N)N)ccc2[nH]1` [Compound 13, 1H-2-[4-[4-[N,N-Bis(2-chloroethyl)amino]phenoxyacetylamino]-1-methylpyrrol-2-yl]benzimidazole-5-[N-(2-amidinoethyl)]carboxamide hydrochloride] as the compound, how does the ILS ([3]; 1 mg/kg) read?
Answer: 123

Question: And the “Survived After 8 weeks/Tested Animals” value ([3]; concentration 3 (in parentheses))?
Answer: 3/5

Question: What about the “50% Inhibition” value [4] of the same compound?
Answer: 0.01 µg/mL

Question: Which ILS ([3]; 10 mg/kg) does the source give for `Cn1cc(NC(=O)c2ccccc2N(CCCl)CCCl)cc1-c1nc2cc(C(=O)NCCC(=N)N)ccc2[nH]1` [Compound 305, 1H-2-[4-[2-[N,N-Bis(2-chloroethyl)amino]benzoylamino]-1-methylpyrrol-2-yl)benzimidazole-5-[N-(2-amidinoethyl)]carboxamide hydrochloride] here?
Answer: 22

Question: And the “50% Inhibition” value [4]?
Answer: 4.2 µg/mL

Question: For `Cn1cc(NC(=O)c2cc(N(CCCl)CCCl)cc(N(CCCl)CCCl)c2)cc1-c1nc2cc(C(=O)NCCC(=N)N)ccc2[nH]1` [Compound 310, 1H-2-[4-[3,5-Bis[N,N-bis(2-chloroethyl)amino]benzoylamino]-1-methylpyrrol-2-yl]benzimidazole-5-[N-(2-amidinoethyl)]carboxamide hydrochloride], which ILS ([3]; 1 mg/kg) is on record?
Answer: 88

Question: What about the “50% Inhibition” value [4] of the same compound?
Answer: 0.76 µg/mL

Question: `Cn1cc(NC=O)cc1-c1nc2cc(C(=O)NCCC(=N)N)ccc2[nH]1` [Compound 318, 1H-2-(4-Formylamino-1-methylpyrrol-2-yl)benzimidazole-5-[N-(2-amidinoethyl)]carboxamide hydrochloride] was tested. Which ΔTm [1] did it give?
Answer: 7 °C

Question: What about the IC50 [4] of the same compound?
Answer: 19.8 µg/mL

Question: How did the ILS ([3]; 10 mg/kg) turn out when `Cn1cc(NC(=O)CNC(=N)N)cc1-c1nc2cc(C(=O)Nc3ccc(N(CCCl)CCCl)cc3)ccc2[nH]1` [Compound 1001, 1H-2-[1-Methyl-4-(2-guanidinoacetylamino)pyrrol-2-yl]benzimidazole-5-[N-[4-[N,N-bis(2-chloroethyl)amino]phenyl]]carboxamide hydrochloride] was run?
Answer: 115

Question: What about the T/C ([2]; 6 mg/Kg) of the same compound?
Answer: 7%

Question: What about the “50% Inhibition” value [4] of the same compound?
Answer: 0.53 µg/mL

Question: With `Cn1cc(NC(=O)CNC(=N)N)cc1-c1nc2cc(C(=O)NCCc3ccc(N(CCCl)CCCl)cc3)ccc2[nH]1` [Compound 1003, 1H-2-[4-(2-Guanidinoacetylamino)-1-methylpyrrol-2-yl]benzimidazole-5-[N-[2-[4-[N,N-bis(2-chloroethyl)amino]phenyl]ethyl]]carboxamide hydrochloride] as the compound, how does the T/C ([2]; 0.3 mg/Kg) read?
Answer: 41%

Question: What about the “50% Inhibition” value [4] of the same compound?
Answer: 0.018 µg/mL

Question: Which T/C ([2]; 15 mg/Kg) does the source give for `Cc1cc(NC(=O)c2ccc3[nH]c(-c4cc(NC(=O)CNC(=N)N)cn4C)nc3c2)ccc1N(CCCl)CCCl` [Compound 1005, 1H-2-[1-Methyl-4-(2-guanidinoacetylamino)pyrrol-2-yl]benzimidazole-5-[N-[3-methyl-4-[N,N-bis(2-chloroethyl)amino]phenyl]]carboxamide dihydrochloride] here?
Answer: 20%

Question: And the “50% Inhibition” value [4]?
Answer: 0.65 µg/mL

Question: How did the T/C ([2]; 10 mg/Kg) turn out when `COc1cc(NC(=O)c2ccc3[nH]c(-c4cc(NC(=O)CNC(=N)N)cn4C)nc3c2)ccc1N(CCCl)CCCl` [Compound 1009, 1H-2-[1-Methyl-4-(guanidinoacetylamino)pyrrol-2-yl]benzimidazole-5-[N-[3-methoxy-4-[N,N-bis(2-chloroethyl)amino]phenyl]]carboxamide dihydrochloride] was run?
Answer: 29%

Question: And the “50% Inhibition” value [4]?
Answer: 2.31 µg/mL

Question: With `Cn1cc(NC(=O)CNC(=N)N)cc1-c1nc2cc(C(=O)Nc3ccc(N(CCCl)CCCl)c(C#N)c3)ccc2[nH]1` [Compound 1013, 1H-2-[1-Methyl-4-(guanidinoacetylamino)pyrrol-2-yl]benzimidazole-5-[N-[3-cyano-4-[N,N-bis(2-chloroethyl)amino]phenyl]]carboxamide dihydrochloride] as the compound, how does the T/C ([2]; 3 mg/Kg) read?
Answer: 58%

Question: What about the “50% Inhibition” value [4] of the same compound?
Answer: 0.34 µg/mL

Question: Which T/C ([2]; 3 mg/Kg) does the source give for `Cn1cc(NC(=O)CNC(=N)N)cc1-c1nc2cc(C(=O)Nc3ccc(N(CCCl)CCCl)c(Cl)c3)ccc2[nH]1` [Compound 1017, 1H-2-[1-Methyl-4-(guanidinoacetylamino)pyrrol-2-yl]benzimidazole-5-[N-[3-chloro-4-[N,N-bis(2-chloroethyl)amino]phenyl]]carboxamide dihydrochloride] here?
Answer: 30%

Question: What about the “50% Inhibition” value [4] of the same compound?
Answer: 0.78 µg/mL

Question: What does the source list for `Cc1cc(N(CCCl)CCCl)ccc1NC(=O)c1ccc2[nH]c(-c3cc(NC(=O)CNC(=N)N)cn3C)nc2c1` [Compound 1024, 1H-2-[1-Methyl-4-(guanidinoacetylamino)pyrrol-2-yl]benzimidazole-5-[N-[2-methyl-4-[N,N-bis(2-chloroethyl)amino]phenyl]]carboxamide dihydrochloride]?
Answer: T/C ([2]; 10 mg/Kg): 61%; 50% Inhibition [4]: 0.586 µg/mL

Question: With `CN(C)CCCC(=O)Nc1cc(-c2nc3cc(C(=O)Nc4ccc(N(CCCl)CCCl)cc4)ccc3[nH]2)n(C)c1` [Compound 1256, 1H-2-[1-Methyl-4-[4-(N,N-dimethylamino)butyrylamino]pyrrol-2-yl]benzimidazole-5-[N-[4-[N,N-bis-(2-chloroethyl)amino]phenyl]]carboxamide hydrochloride] as the compound, how does the T/C ([2]; 15 mg/Kg) read?
Answer: 60%

Question: What about the “50% Inhibition” value [4] of the same compound?
Answer: 4.67 µg/mL

Question: With `Cn1cc(NC(=O)c2ccc(N(CCCl)CCCl)cc2)cc1-c1nc2cc(C(=O)Nc3ccc(N(CCCl)CCCl)cc3)ccc2[nH]1` [Compound 2001, 1H-2-[4-[4-[N,N-Bis(2-chloroethyl)amino]benzoylamino]-1-methylpyrrol-2-yl]benzimidazole-5-[N-[4-[N,N-bis(2-chloroethyl)amino]phenyl]]carboxamide] as the compound, how does the ILS ([3]; 10 mg/kg) read?
Answer: 47

Question: What about the “50% Inhibition” value [4] of the same compound?
Answer: 0.005 µg/mL

Question: Which results are given for `Cn1cc(NC(=O)c2cc(NC(=O)c3cc(NC=O)cn3C)cn2C)cc1C(=O)NCCC(=N)N` [Distamycin, distamycin, reference compound]?
Answer: ΔTm [1]: 10 °C; IC50 [4]: 36 µg/mL (≈ 74.8 µM)
